Calls of active or inactive are those of the source. The calls are words filed in the database; no cut-off is given here.
Tests used:
[1] = system: MGC-803; experiment: Induction of apoptosis in human MGC-803 cells assessed as necrotic cells at 0.25 uM by Annexin V-FITC/PI staining based flow cytometric analysis (reference value: 0.4 %); type: functional
[2] = system: MGC-803; experiment: Induction of apoptosis in human MGC-803 cells assessed as viable cells at 0.25 uM by Annexin V-FITC/PI staining based flow cytometric analysis (reference value: 95.0 %); type: functional; conditions: read-out: Activity
[3] = system: MGC-803; experiment: Induction of apoptosis in human MGC-803 cells assessed as necrotic cells at 0.5 uM by Annexin V-FITC/PI staining based flow cytometric analysis (reference value: 0.4 %); type: functional
[4] = system: MGC-803; experiment: Antitumor activity human MGC-803 cells assessed as inhibition of cell proliferation incubated for 72 hrs by MTT assay; type: functional, cell-based; conditions: MGC-803, 72 h
[5] = system: MGC-803; experiment: Induction of apoptosis in human MGC-803 cells assessed as early apoptotic cells at 0.75 uM by Annexin V-FITC/PI staining based flow cytometric analysis (reference value: 1.8 %); type: functional
[6] = system: MGC-803; experiment: Induction of cell cycle arrest in human MGC-803 cells assessed as accumulation of cells at G1/S phase by measuring decrease in CycD1 protein expression at 0.25 to 0.75 uM by Western blot analysis; type: functional, cell-based; conditions: dose 0.25-0.75 µM
[7] = system: MGC-803; experiment: Induction of apoptosis in human MGC-803 cells assessed as increase in PARP protein expression by Western blot analysis; type: functional, cell-based; conditions: dose 0.25-0.75 µM, DDE = dose-dependent effect
[8] = system: MGC-803; experiment: Induction of apoptosis in human MGC-803 cells assessed as late apoptotic cells at 0.5 uM by Annexin V-FITC/PI staining based flow cytometric analysis (reference value: 2.8 %); type: functional
[9] = system: MGC-803; experiment: Induction of apoptosis in human MGC-803 cells assessed as late apoptotic cells at 0.75 uM by Annexin V-FITC/PI staining based flow cytometric analysis (reference value: 2.8 %); type: functional
[10] = system: MGC-803; experiment: Induction of apoptosis in human MGC-803 cells assessed as increase in Bid protein expression by Western blot analysis; type: functional, cell-based; conditions: dose 0.25-0.75 µM, DDE = dose-dependent effect
[11] = system: MGC-803; experiment: Induction of apoptosis in human MGC-803 cells assessed as early apoptotic cells at 0.5 uM by Annexin V-FITC/PI staining based flow cytometric analysis (reference value: 1.8 %); type: functional
[12] = system: MGC-803; experiment: Induction of apoptosis in human MGC-803 cells assessed as necrotic cells at 0.75 uM by Annexin V-FITC/PI staining based flow cytometric analysis (reference value: 0.4 %); type: functional
[13] = system: PC-3; experiment: Antitumor activity against human PC-3 cells assessed as inhibition of cell proliferation incubated for 72 hrs by MTT assay; type: functional, cell-based; conditions: PC-3, 72 h
[14] = system: HepG2; experiment: Antitumor activity human HepG2 cells assessed as inhibition of cell proliferation incubated for 72 hrs by MTT assay; type: functional, cell-based; conditions: HepG2, 72 h
[15] = system: MGC-803; experiment: Induction of apoptosis in human MGC-803 cells assessed as viable cells at 0.75 uM by Annexin V-FITC/PI staining based flow cytometric analysis (reference value: 95.0 %); type: functional; conditions: read-out: Activity
[16] = system: MGC-803; experiment: Induction of apoptosis in human MGC-803 cells assessed as early apoptotic cells at 0.25 uM by Annexin V-FITC/PI staining based flow cytometric analysis (reference value: 1.8 %); type: functional
[17] = system: MGC-803; experiment: Induction of apoptosis in human MGC-803 cells assessed as viable cells at 0.5 uM by Annexin V-FITC/PI staining based flow cytometric analysis (reference value: 95.0 %); type: functional; conditions: read-out: Activity
[18] = system: MGC-803; experiment: Induction of apoptosis in human MGC-803 cells assessed as total apoptotic cells at 0.25 uM by Annexin V-FITC/PI staining based flow cytometric analysis (reference value: 4.6%); type: functional
[19] = system: MGC-803; experiment: Induction of apoptosis in human MGC-803 cells assessed as total apoptotic cells at 0.5 uM by Annexin V-FITC/PI staining based flow cytometric analysis (reference value: 4.6%); type: functional
[20] = system: MGC-803; experiment: Induction of apoptosis in human MGC-803 cells assessed as late apoptotic cells at 0.25 uM by Annexin V-FITC/PI staining based flow cytometric analysis (reference value: 2.8 %); type: functional
[21] = system: MGC-803; experiment: Induction of apoptosis in human MGC-803 cells assessed as total apoptotic cells at 0.75 uM by Annexin V-FITC/PI staining based flow cytometric analysis (reference value: 4.6%); type: functional
[22] = system: HepG2; experiment: Potency index, ratio of 5-fluorouracil IC50 to test compound IC50 for antiproliferative activity against human HepG2 cells assessed as inhibition of cell proliferation incubated for 72 hrs by MTT assay; type: functional
[23] = system: MGC-803; experiment: Potency index, ratio of 5-fluorouracil IC50 to test compound IC50 for antiproliferative activity against human MGC-803 cells assessed as inhibition of cell proliferation incubated for 72 hrs by MTT assay; type: functional
[24] = system: MGC-803; experiment: Antiproliferative activity against human MGC-803 cells assessed as inhibition of cell proliferation incubated for 48 hrs by MTT assay; type: functional, cell-based; conditions: MGC-803, 48 h

For CCSc1nc(Nc2cccc(OC)c2)c2ccncc2n1, the Activity [1] was 0.2%, the viability at 0.25 µM [2] was 90% and the Activity [3] was 0.5%. For the same compound, the IC50 [4] was 0.59 µM, the Activity [5] was 38.9% and the Activity [6] was “Active”. The Activity [7] was “Dde”, the Activity [8] was 11.6% and the Activity [9] was 36.8%. For the same compound, the Activity [10] was “Dde”, the Activity [11] was 16% and the Activity [12] was 0.2%. The IC50 [13] was 7.15 µM, the IC50 [14] was 10.7 µM and the viability at 0.75 µM [15] was 24.1%. For the same compound, the Activity [16] was 6.8%, the viability at 0.5 µM [17] was 71.9% and the Activity [18] was 9.8%. It also gave an Activity [19] of 27.6%, an Activity [20] of 3% and an Activity [21] of 75.7%.

In the case of C#CCSc1nc(NCCC#N)c2ccncc2n1, the IC50 [4] is reported as > 80 µM, the IC50 [13] is reported as > 80 µM and the IC50 [14] is reported as > 80 µM.

Compound C#CCSc1nc(Nc2ccc(Cl)cc2)c2ccncc2n1 has an IC50 [4] of 16.4 µM, an IC50 [13] of 19 µM and an IC50 [14] of 36.7 µM.

With C/C=C/Sc1nc(Nc2cccc(OC)c2)c2ccncc2n1 the IC50 [4] was 1.03 µM, the IC50 [13] was 6.79 µM and the IC50 [14] was 18.1 µM.

With C#CCSc1nc(Nc2ccc(OC)cc2)c2ccncc2n1 the IC50 [4] was > 80 µM, the IC50 [13] was 15.1 µM and the IC50 [14] was > 80 µM.

In the case of C#CCSc1nc(N2CCN(CC)CC2)c2ccncc2n1, the IC50 [4] is reported as 70.6 µM, the IC50 [13] is reported as > 80 µM and the IC50 [14] is reported as > 80 µM.

For C#CCSc1nc(Nc2ccc(F)cc2)c2ccncc2n1, the IC50 [4] was 15.8 µM, the IC50 [13] was 17.3 µM and the IC50 [14] was 10.8 µM.

C#CCSc1nc(Nc2ccccc2Cl)c2ccncc2n1 was tested, and the IC50 [4] was 27.6 µM, the IC50 [13] was > 80 µM and the IC50 [14] was 17.2 µM.

With C#CCSc1nc(N2CCOCC2)c2ccncc2n1 the IC50 [4] was > 80 µM, the IC50 [13] was > 80 µM and the IC50 [14] was > 80 µM.

For C#CCSc1nc(Nc2ccccc2OC)c2ccncc2n1, the IC50 [4] was 3.44 µM, the IC50 [13] was > 80 µM and the IC50 [14] was 4.53 µM.

C#CCSc1nc(Nc2cc(OC)c(OC)c(OC)c2)c2ccncc2n1 was tested, and the IC50 [4] was 5.68 µM, the IC50 [13] was 30.7 µM and the IC50 [14] was 14.2 µM.

With C#CCSc1nc(N2CCN(C(=O)OC(C)(C)C)CC2)c2ccncc2n1 the IC50 [4] was > 80 µM, the IC50 [13] was 47.5 µM and the IC50 [14] was 55.9 µM.

C#CCSc1nc(Nc2cccc(O)c2)c2ccncc2n1 was tested, and the IC50 [4] was 15.7 µM, the IC50 [13] was > 80 µM and the IC50 [14] was 29.5 µM.

With C#CCSc1nc(NCCC(C)C)c2ccncc2n1 the IC50 [4] was > 80 µM, the IC50 [13] was > 80 µM and the IC50 [14] was > 80 µM.

With C#CCSc1nc(Nc2ccc(C)cc2)c2ccncc2n1 the IC50 [4] was 8.09 µM, the IC50 [13] was 15.7 µM and the IC50 [14] was 6.17 µM.

Work on C#CCSc1nc(Nc2cccc(OC)c2)c2ccncc2n1 yielded an IC50 [4] of 2.07 µM, an IC50 [13] of 17.1 µM and an IC50 [14] of 0.92 µM. The “Ratio IC50” value [22] was 30 and the “Ratio IC50” value [23] was 3.

With C#CCSc1nc(Nc2ccc([N+](=O)[O-])cc2)c2ccncc2n1 the IC50 [4] was > 80 µM, the IC50 [13] was > 80 µM and the IC50 [14] was > 80 µM.

With CCCSc1nc(Nc2cccc(OC)c2)c2ccncc2n1 the IC50 [4] was 1.95 µM, the IC50 [13] was 15.3 µM and the IC50 [14] was 17.3 µM.

In the case of C#CCSc1nc(N2CCN(C)CC2)c2ccncc2n1, the IC50 [4] is reported as > 80 µM, the IC50 [13] is reported as > 80 µM and the IC50 [14] is reported as > 80 µM.

C#CCSc1nc(N2CCN(Cc3ccccc3)CC2)c2ccncc2n1 was tested, and the IC50 [4] was > 80 µM, the IC50 [13] was > 80 µM and the IC50 [14] was > 80 µM.

Work on C#CCSc1nc(Nc2cccc(Cl)c2)c2ccncc2n1 yielded an IC50 [4] of 2.19 µM, an IC50 [13] of 56.5 µM and an IC50 [14] of 1.09 µM.

Compound C#CCSc1nc(Nc2ccc(Cl)cc2Cl)c2ccncc2n1 has an IC50 [4] of 25.5 µM, an IC50 [13] of 30.4 µM and an IC50 [14] of 11 µM.

C#CCSc1nc(N2CCSCC2)c2ccncc2n1 was tested, and the IC50 [4] was > 80 µM, the IC50 [13] was > 80 µM and the IC50 [14] was > 80 µM.

For C#CCSc1nc(Nc2ccccc2O)c2ccncc2n1, the IC50 [4] was 21 µM, the IC50 [13] was 18.7 µM and the IC50 [14] was > 80 µM.

For C#CCSc1nc(Nc2ccc(Br)cc2)c2ccncc2n1, the IC50 [4] was 26 µM, the IC50 [13] was 26 µM and the IC50 [14] was 56.2 µM.

Compound COc1cccc(Nc2nc(SCC3CCCCC3)nc3cnccc23)c1 has an IC50 [4] of 23.7 µM, an IC50 [13] of 27.5 µM and an IC50 [14] of 32.8 µM.

Cc1cc(Cc2nc(C)c3ccccc3n2)n2ncnc2n1 gave an IC50 [24] of 8.28 µM.

For C#CCSc1nc(Nc2ccccc2)c2ccncc2n1, the IC50 [4] was 16.2 µM, the IC50 [13] was > 80 µM and the IC50 [14] was 29.4 µM.

In the case of C#CCSc1nc(Nc2ccc(O)cc2)c2ccncc2n1, the IC50 [4] is reported as > 80 µM, the IC50 [13] is reported as > 80 µM and the IC50 [14] is reported as > 80 µM.

With O=c1[nH]cc(F)c(=O)[nH]1 [FLUOROURACIL] the IC50 [4] was 7.21 µM, the IC50 [13] was 15.1 µM and the IC50 [14] was 29.8 µM.

COc1cccc(Nc2nc(SCC3CC3)nc3cnccc23)c1 was tested, and the IC50 [4] was 1.34 µM, the IC50 [13] was 14.8 µM and the IC50 [14] was 24.9 µM.

Source: ChEMBL document CHEMBL5214976, “Design, synthesis and anti-tumor activity studies of novel pyrido[3, 4-d]pyrimidine derivatives” (Bioorg Med Chem Lett, 2022)
